In the supplement of paper PMC11061612:

What was measured:
SG3199 = compound: CC1=CN2[C@@H](C1)C=NC3=CC(=C(C=C3C2=O)OC)OCCCCCOC4=C(C=C5C(=C4)N=C[C@@H]6CC(=CN6C5=O)C)OC [SG3199]; settings: max 0.001 µM
Outline: (§1)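 After 24 hours at 37°C and 5% CO2 in 1536-well plates holding 7.5 μl of DMEM/F12 or RPMI with 10% FBS, cancer cell lines were dosed for 72 hours, with final DMSO typically 0.2%. Viability came from CellTiter-Glo 2.0 luminescence, scaled between the means of blank wells and DMSO wells. A non-linear mixed effects model fitted a two-parameter logistic curve to each dose response to give the single-agent IC50.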

Venetoclax = compound: CC1(C)CCC(CN2CCN(c3ccc(C(=O)NS(=O)(=O)c4ccc(NCC5CCOCC5)c([N+](=O)[O-])c4)c(Oc4cnc5[nH]ccc5c4)c3)CC2)=C(c2ccc(Cl)cc2)C1 [Venetoclax]; settings: max 1 µM
Outline: as §1

Taselisib = compound: Cc1nc(-c2cn3c(n2)-c2ccc(-c4cnn(C(C)(C)C(N)=O)c4)cc2OCC3)n(C(C)C)n1 [Taselisib]; settings: max 10 µM
Outline: as §1

AZD0156 = compound: CN(C)CCCOc1ccc(-c2ccc3ncc4c(c3c2)n(C2CCOCC2)c(=O)n4C)cn1 [AZD0156]
Outline: as §1

AZD8186 = compound: C[C@@H](Nc1cc(F)cc(F)c1)c1cc(C(=O)N(C)C)cc2c(=O)cc(N3CCOCC3)oc12 [AZD8186]; settings: max 3 µM
Outline: as §1

AZD7648 = compound: Cc1cc2ncnn2cc1Nc1ncc2c(n1)n(C1CCOCC1)c(=O)n2C [AZD7648]; settings: max 10 µM
Outline: as §1

Capivasertib = compound: C1CN(CCC1(C(=O)N[C@@H](CCO)C2=CC=C(C=C2)Cl)N)C3=NC=NC4=C3C=CN4 [Capivasertib]
Outline: as §1

AZD5991 = compound: Cc1c2c(nn1C)CSCc1cc(n(C)n1)CSc1cc(c3ccccc3c1)OCCCc1c(C(=O)O)n(C)c3c-2c(Cl)ccc13 [AZD5991]; settings: max 1 µM
Outline: as §1

AZD6738 = compound: C[C@@H]1COCCN1C2=NC(=NC(=C2)C3(CC3)[S@](=N)(=O)C)C4=C5C=CNC5=NC=C4 [AZD6738]; settings: max 10 µM
Outline: as §1

Alisertib = compound: COc1cc(Nc2ncc3c(n2)-c2ccc(Cl)cc2C(c2c(F)cccc2OC)=NC3)ccc1C(=O)O [Alisertib]; settings: max 10 µM
Outline: as §1

SN-38 = compound: CCc1c2c(nc3ccc(O)cc13)-c1cc3c(c(=O)n1C2)COC(=O)[C@]3(O)CC [SN-38]; settings: max 0.3 µM
Outline: as §1

AZD2811 = compound: CCN(CCO)CCCOc1ccc2c(Nc3cc(CC(=O)Nc4cccc(F)c4)[nH]n3)ncnc2c1 [AZD2811]; settings: max 1 µM
Outline: as §1

AZD1775 = compound: C=CCn1c(=O)c2cnc(Nc3ccc(N4CCN(C)CC4)cc3)nc2n1-c1cccc(C(C)(C)O)n1 [AZD1775]
Outline: as §1

Olaparib = compound: O=C(c1cc(Cc2n[nH]c(=O)c3ccccc23)ccc1F)N1CCN(C(=O)C2CC2)CC1 [Olaparib]; settings: max 10 µM
Outline: as §1

Prexasertib = compound: COc1cccc(OCCCN)c1-c1cc(Nc2cnc(C#N)cn2)n[nH]1 [Prexasertib]; settings: max 1 µM
Outline: as §1

AZD4320 = compound: CN(CC[C@H](CSC1=CC=CC=C1)NC2=C(C=C(C=C2)S(=O)(=O)NC(=O)C3=CC=C(C=C3)N4CCC(CC4)[C@H](C5=CC=CC=C5C6=CC=C(C=C6)Cl)O)S(=O)(=O)C(F)(F)F)CCO [AZD4320]; settings: max 1 µM
Outline: as §1

Selumetinib = compound: Cn1cnc2c(F)c(Nc3ccc(Br)cc3Cl)c(C(=O)NOCCO)cc21 [Selumetinib]
Outline: as §1

Doxorubicin = compound: COc1cccc2c1C(=O)c1c(O)c3c(c(O)c1C2=O)C[C@@](O)(C(=O)CO)C[C@@H]3O[C@H]1C[C@H](N)[C@H](O)[C@H](C)O1 [Doxorubicin]; settings: max 1 µM
Outline: as §1

Trametinib = compound: CC(=O)Nc1cccc(-n2c(=O)n(C3CC3)c(=O)c3c(Nc4ccc(I)cc4F)n(C)c(=O)c(C)c32)c1 [Trametinib]; settings: max 1 µM
Outline: as §1

Gefitinib = compound: COc1cc2ncnc(Nc3ccc(F)c(Cl)c3)c2cc1OCCCN1CCOCC1 [Gefitinib]; settings: max 10 µM
Outline: as §1

AZD5153 = compound: COc1nnc2ccc(N3CCC(c4ccc(OCCN5CCN(C)C(=O)[C@H]5C)cc4)CC3)nn12 [AZD5153]; settings: max 1 µM
Outline: as §1

Crizotinib = compound: C[C@@H](Oc1cc(-c2cnn(C3CCNCC3)c2)cnc1N)c1c(Cl)ccc(F)c1Cl [Crizotinib]; settings: max 10 µM
Outline: as §1

Dasatinib = compound: CC1=C(C(=CC=C1)Cl)NC(=O)C2=CN=C(S2)NC3=CC(=NC(=N3)C)N4CCN(CC4)CCO [Dasatinib]; settings: max 2 µM
Outline: as §1

Savolitinib = compound: C[C@@H](c1ccc2nccn2c1)n1nnc2ncc(-c3cnn(C)c3)nc21 [Savolitinib]; settings: max 1 µM
Outline: as §1

Palbociclib = compound: CC(=O)c1c(C)c2cnc(Nc3ccc(N4CCNCC4)cn3)nc2n(C2CCCC2)c1=O [Palbociclib]; settings: max 10 µM
Outline: as §1

Lapatinib = compound: CS(=O)(=O)CCNCc1ccc(-c2ccc3ncnc(Nc4ccc(OCc5cccc(F)c5)c(Cl)c4)c3c2)o1 [Lapatinib]; settings: max 10 µM
Outline: as §1

AZD1390 = compound: CC(C)n1c(=O)n(C)c2cnc3cc(F)c(-c4ccc(OCCCN5CCCCC5)nc4)cc3c21 [AZD1390]; settings: max 0.3 µM
Outline: as §1

| Cell Line | IC50, cell viability 72 h (SG3199) [µM] | IC50, cell viability 72 h (Venetoclax) [µM] | IC50, cell viability 72 h (Taselisib) [µM] | IC50, cell viability 72 h (AZD0156; max 1 µM) [µM] | IC50, cell viability 72 h (AZD8186) [µM] | IC50, cell viability 72 h (AZD7648) [µM] | IC50, cell viability 72 h (Capivasertib; max 3 µM) [µM] | IC50, cell viability 72 h (AZD5991) [µM] | IC50, cell viability 72 h (AZD6738) [µM] | IC50, cell viability 72 h (Alisertib) [µM] | IC50, cell viability 72 h (SN-38) [µM] | IC50, cell viability 72 h (AZD2811) [µM] | IC50, cell viability 72 h (AZD1775; max 1 µM) [µM] | IC50, cell viability 72 h (Olaparib) [µM] | IC50, cell viability 72 h (Prexasertib) [µM] | IC50, cell viability 72 h (AZD4320) [µM] | IC50, cell viability 72 h (Selumetinib; max 3 µM) [µM] | IC50, cell viability 72 h (Doxorubicin) [µM] | IC50, cell viability 72 h (Trametinib) [µM] | IC50, cell viability 72 h (AZD0156; max 3 µM) [µM] | IC50, cell viability 72 h (Capivasertib; max 10 µM) [µM] | IC50, cell viability 72 h (Gefitinib) [µM] | IC50, cell viability 72 h (AZD5153) [µM] | IC50, cell viability 72 h (Crizotinib) [µM] | IC50, cell viability 72 h (Dasatinib) [µM] | IC50, cell viability 72 h (Savolitinib) [µM] | IC50, cell viability 72 h (Palbociclib) [µM] | IC50, cell viability 72 h (AZD1775; max 3 µM) [µM] | IC50, cell viability 72 h (Lapatinib) [µM] | IC50, cell viability 72 h (AZD1390) [µM] | IC50, cell viability 72 h (Selumetinib; max 10 µM) [µM] |
| --- | --- | --- | --- | --- | --- | --- | --- | --- | --- | --- | --- | --- | --- | --- | --- | --- | --- | --- | --- | --- | --- | --- | --- | --- | --- | --- | --- | --- | --- | --- | --- |
| TE-10 (Esophageal Squamous Cell Carcinoma) | > 0.001 | > 1 | 0.941 | > 1 | > 3 | > 10 | > 3 | 0.29 | 1.6 | 2.93 | 0.0371 | > 1 | 0.381 | > 10 | 0.0119 | > 1 | > 3 | 0.82 | 0.825 |  |  |  |  |  |  |  |  |  |  |  |  |
| CA46 (Burkitt's Lymphoma) | > 0.001 | > 1 | > 10 |  | > 3 | > 10 |  | > 1 | > 10 | > 10 | 0.135 | > 1 |  | > 10 | 0.142 | > 1 |  | > 1 | > 1 | > 3 | > 10 | > 10 | 0.232 | > 10 | > 2 | > 1 | > 10 | 0.579 | > 10 | > 0.3 | > 10 |
| A204 (Rhabdomyosarcoma) | > 0.001 | > 1 | 4.32 |  | > 3 | > 10 |  | > 1 | > 10 | > 10 | 0.132 | > 1 |  | > 10 | 0.362 | > 1 |  | 0.528 | > 1 | > 3 | > 10 | > 10 | > 1 | > 10 | 1.39 | > 1 | > 10 | > 3 | > 10 | > 0.3 | > 10 |
| KYSE-140 (Esophageal Squamous Cell Carcinoma) | > 0.001 | > 1 | 1.13 |  | > 3 | > 10 |  | > 1 | 0.66 | > 10 | > 0.3 | > 1 |  | > 10 | 0.012 | > 1 |  | > 1 | 0.858 | > 3 | 1.66 | 1.93 | 0.827 | > 10 | 1.23 | > 1 | > 10 | 0.423 | 7.25 | > 0.3 | > 10 |
| JIMT-1 (Breast Carcinoma) | > 0.001 | > 1 | 4.29 |  | > 3 | > 10 |  | > 1 | 5.64 | > 10 | > 0.3 | > 1 |  | > 10 | 0.0851 | > 1 |  | > 1 | > 1 | > 3 | > 10 | > 10 | > 1 | > 10 | 1.08 | > 1 | > 10 | 1.08 | > 10 | > 0.3 | > 10 |
